These are literature values, as cited in PMC3138524 (European journal of pharmacology, 2011).

Positions of bridges follow the written chain, without caps; N, C: chain ends. Non-standard residues stand in square brackets, D forms with d. d2Nal = N[C@H](Cc1ccc2ccccc2c1)C(=O)O; Pen = CC(C)(S)[C@H](N)C(=O)O; Nle = CCCC[C@H](N)C(=O)O

Common to all, as to assay type: cell-based, HEK293
Data set [1] deals with T1, MC3R (Homo sapiens, UniProt P41968). As to conditions: read-out: Functional Assays cAMP EC50; n = 2.
Data set [2] addresses T2, MC5R (Homo sapiens, UniProt P33032). As to conditions: read-out: Binding Affinities IC50; n = 2.
Data set [3] addresses T2, MC5R. As to conditions: read-out: Functional Assays cAMP EC50; n = 2.
Data set [4] concerns the target T1, MC3R. As to conditions: read-out: Binding Affinities IC50; n = 2.
For data set [5], the target named is T3, MC4R (Homo sapiens, UniProt P32245). As to conditions: read-out: Functional Assays cAMP EC50; n = 2.
In data set [6] the target is T3, MC4R. As to conditions: read-out: Binding Affinities IC50; n = 2.

T3 sequence (P32245 whole entry): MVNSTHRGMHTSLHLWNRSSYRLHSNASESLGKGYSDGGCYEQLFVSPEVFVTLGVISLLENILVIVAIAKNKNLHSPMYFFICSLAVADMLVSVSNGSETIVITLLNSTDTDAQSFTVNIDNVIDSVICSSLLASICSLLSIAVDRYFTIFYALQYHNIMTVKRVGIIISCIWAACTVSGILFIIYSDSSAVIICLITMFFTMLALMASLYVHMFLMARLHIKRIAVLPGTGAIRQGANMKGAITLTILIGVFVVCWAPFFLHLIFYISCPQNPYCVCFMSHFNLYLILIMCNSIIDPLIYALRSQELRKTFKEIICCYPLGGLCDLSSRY
T1 sequence (P41968 whole entry): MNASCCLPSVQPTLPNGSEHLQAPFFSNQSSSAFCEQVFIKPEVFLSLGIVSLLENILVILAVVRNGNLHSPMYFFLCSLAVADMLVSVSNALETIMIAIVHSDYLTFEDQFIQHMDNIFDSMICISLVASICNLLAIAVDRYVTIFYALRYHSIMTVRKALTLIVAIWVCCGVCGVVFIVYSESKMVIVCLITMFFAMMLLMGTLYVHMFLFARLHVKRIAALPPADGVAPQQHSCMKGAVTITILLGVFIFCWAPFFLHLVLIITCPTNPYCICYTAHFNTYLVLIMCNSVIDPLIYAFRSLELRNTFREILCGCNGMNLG
T2 sequence (P33032 whole entry): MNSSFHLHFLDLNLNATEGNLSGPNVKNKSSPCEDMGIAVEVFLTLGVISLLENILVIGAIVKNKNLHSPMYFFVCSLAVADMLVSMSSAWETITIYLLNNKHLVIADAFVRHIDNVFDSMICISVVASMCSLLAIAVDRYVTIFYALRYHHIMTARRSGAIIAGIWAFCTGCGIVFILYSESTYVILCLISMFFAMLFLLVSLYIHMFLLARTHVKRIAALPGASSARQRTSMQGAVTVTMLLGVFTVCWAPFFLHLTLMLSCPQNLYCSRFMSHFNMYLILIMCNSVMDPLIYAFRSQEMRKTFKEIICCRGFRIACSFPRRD

Regarding “Tyr-Val-Nle-Gly-His-D-Nal(2′)-Arg-Trp-Asp-Arg-Phe-Gly-NH2 [compound 1]”, the EC50 in data set [1] and in data set [3] was greater than 10000 nM throughout. The IC50 was 1 nM in data set [2] and 0.84 nM in data set [4].
For the compound “Ac-c[Cys-His-D-Phe-Cys]-N^α-Gubu-D-Trp-NH2 [compound 7]”, in data set [5], the half-maximal effective concentration (EC50) is greater than 1000 nM. Also, the IC50 in data set [6] was 0.7 nM.
As for “Ac-Nle-c[Asp-Aba-D-Phe-Arg-Trp-Lys]-NH2 [compound 4]”, in data set [4], the IC50 is 50 nM.
For the compound “Ac-[Nle][Pen]EH[d2Nal]RWCPKD-NH2 (disulfide 2-8) [compound 5]”, the IC50 in data set [4] is 3 nM.
With `N=C(N)NCCC[C@@H]1NC(=O)[C@@H](Cc2ccccc2)NC(=O)[C@@H]2CCCN2C(=O)[C@@H](NC(=O)[C@H](N)Cc2ccccc2)CC(=O)NCCCC[C@@H](C(N)=O)NC(=O)[C@H](Cc2c[nH]c3ccccc23)NC1=O` [compound 3, D-Phe-c[Asp-Pro-D-Phe-Arg-Trp-Lys]-NH2], the EC50 in data set [5] is greater than 10000 nM; in data set [3], greater than 1000 nM.
Turning to “Ac-c[Cys-His-D-Phe-N^α-Gubu-Cys]-Trp-NH2 [compound 6]”, the IC50 in data set [6] is 1.8 nM.
